For experiment [1], the system named is SW1900 cells (KRAS G12D). The experiment can be described thus: 3D Cell viability assay in SW1900 cells (Biological Example 6). The class given is cell-based. To be noted: Homo sapiens; SW1990 (text: SW1900, KRAS G12D) spheroids, 72 hours. On the procedure: (§1) Biological Example 6: 3D Cell viability assay in AsPC-1, SW1900, HPAC, Capan-2, RKN, H358, HCT116, KP-2, H1573, A549, MKN1, and HT1080 cells
(§2) The inhibition of cellular viability as a result of test compound treatment in a spheroid assay was measured using the CellTiter-Glow 3D Cell Viability Assay (Promega).
(§3) On Day 1, 1000 cells per well were seeded in 150 μL of complete growth media supplemented with 10% fetal bovine serum (FBS) and incubated at 37° C., in the presence of 5% CO2 in 96-well ultra-low attachment microplates (Corning) for 48 hours undisturbed to allow spheroids to form.
(§4) Following spheroid formation, cells were treated with compounds diluted in DMSO at 0.25% final DMSO concentration. Compounds were dosed in a 9-point concentration curve with three-fold dilution between concentrations. Cells were incubated in the presence of compound for 72 hours at 37° C., in the presence of 5% CO2.
(§5) Following this incubation period, the kit-provided CTG reagent was allowed to equilibrate for 30 minutes at room temperature, 150 μL of equilibrated CTG reagent was added to each well, and the plate was sealed before shaking at 250 rpm for 10 minutes at room temperature to lyse the cells, 150 μL of lysate per well was transferred to a 96-well plate and luminescence was read on a CLARIOstar plate reader.
(§6) Data was imported into the Prism software package (Graphpad) and EC50 values were calculated using the log (inhibitor) vs, response—variable slope (Four parameters) model.

For experiment [2], the system named is AsPC-1 cells (KRAS G12D). Nature of the experiment: 3D Cell viability assay in AsPC-1 cells (Biological Example 6). The format is cell-based. As to conditions: Homo sapiens, ASPC1; AsPC-1 (KRAS G12D) spheroids, 72 hours. The procedure:
as §1, §2, §3, §4, §5, §6

Experiment [3] concerns HCT116 cells (KRAS G13D). The experiment can be described thus: 3D Cell viability assay in HCT116 cells (Biological Example 6). To be noted: HCT116 (KRAS G13D) spheroids, 72 hours. The format is cell-based. On the procedure:
as §1, §2, §3, §4, §5, §6

Experiment [4] relates to SW1900 cells (KRAS G12D). The experiment can be described thus: Cell-based pERK HTRF assay in SW1900 cells (Biological Example 5). On the procedure: (§7) Biological Example 5: Cell-based PERK HTRF assay in AsPC-1, SW1900, HPAC, Capan-2, RKN, H358, HCT116, KP-2, H1573, A549, MKN1, and HT1080 cells
(§8) The inhibition of ERK phosphorylation, as measured using the HTRF Advanced Phospho-ERK 1/2 (Thr202/Tyr204) Detection Assay kit (Perkin Elmer), was used to determine the effectiveness of test compounds in disrupting KRAS-driven protein/effector signaling in cells.
(§9) On day 1, cells were seeded into 96-well plates at 2.5×10^4 cells/well in 100 μL of complete growth media supplemented with 10% fetal bovine serum (FBS) and incubated at 37° C., in the presence of 5% CO2.
(§10) On day 2, cells were treated with compounds diluted in DMSO at 0.25% final DMSO concentration. Compounds were dosed in a 9-point concentration curve with three-fold dilution between concentrations. Cells were incubated in the presence of compound for two hours at 37° C. Following this treatment period, cells were harvested by aspirating the media, adding 40 μL of kit-supplied 1x lysis buffer per well, and shaking for 30 minutes at 250 rpm at room temperature.
(§11) Following cell lysis, samples were homogenized by pipetting up and down twenty times and 16 μL of cell lysate per well was transferred from the 96-well cell culture plate to two wells of a 384-well detection plate. A complete detection buffer was prepared by diluting D2 and Eu Cryptate antibodies 1:20 in kit-provided detection solution, 4 μL of complete detection buffer was then added to each well with lysate. Plates were incubated with gentle rocking for 24 hours at 4° C.
(§12) Following this incubation period, plates were centrifuged at 500×g for one minute and analyzed on a CLARIOstar plate reader. Data was imported into Microsoft Excel and the signal from the 665 nm channel was divided by the signal from the 620 nm channel. % pERK was calculated as: […]
(§13) Data was imported to the Prism software package (Graphpad) and EC50 values were calculated using the log (inhibitor) vs, response—variable slopc (Four parameters) model.
In general terms: In TR-FRET formats the signal depends on donor and acceptor labels being close together.

The subject of experiment [5] is Capan-2 cells (KRAS G12V). Nature of the experiment: Cell-based pERK HTRF assay in Capan-2 cells (Biological Example 5). The procedure: as §7, §8, §9, §10, §11, §12, §13
Experiment [6] relates to MKN1 cells (KRAS amplification). Nature of the experiment: 3D Cell viability assay in MKN1 cells (Biological Example 6). The format is cell-based. To be noted: MKN (MKN1, KRAS amplification) spheroids, 72 hours. On the procedure: as §1, §2, §3, §4, §5, §6
Experiment [7] concerns H358 cells (KRAS G12C). The experiment can be described thus: 3D Cell viability assay in H358 cells (Biological Example 6). The class given is cell-based. To be noted: H358 (KRAS G12C) spheroids, 72 hours. The procedure:
as §1, §2, §3, §4, §5, §6

Experiment [8] deals with H358 cells (KRAS G12C). Nature of the experiment: Cell-based pERK HTRF assay in H358 cells (Biological Example 5). The procedure: as §7, §8, §9, §10, §11, §12, §13
Experiment [9] deals with Capan-2 cells (KRAS G12V). The experiment can be described thus: 3D Cell viability assay in Capan-2 cells (Biological Example 6). The class given is cell-based. As to conditions: Capan-2 (KRAS G12V) spheroids, 72 hours. On the procedure:
as §1, §2, §3, §4, §5, §6

For experiment [10], the system named is HPAC cells (KRAS G12D). The experiment can be described thus: Cell-based pERK HTRF assay in HPAC cells (Biological Example 5). The procedure:
as §7, §8, §9, §10, §11, §12, §13

Experiment [11] relates to HPAC cells (KRAS G12D). The experiment can be described thus: 3D Cell viability assay in HPAC cells (Biological Example 6). To be noted: HPAC (KRAS G12D) spheroids. The class given is cell-based. On the procedure: as §1, §2, §3, §4, §5, §6
[12] abbreviates: Homo sapiens, SW1990, SW1990 cells (text: SW1900, KRAS G12D).
Where [13] appears, read: Homo sapiens, Capan-2, Capan-2 (KRAS G12V) cells.
Where [14] appears, read: Homo sapiens, NCI-H358, H358 (KRAS G12C) cells.

As a reminder, the IC50 is the concentration that inhibits the measured activity by half. Low readings indicate greater potency in that assay, high ones weaker potency in that assay. Turning to `CCN(c1nc(OC[C@@]23CCCN2C[C@H](F)C3)nc2c(F)c(-c3ccc(F)c4sc(N)c(C#N)c34)c(C(F)(F)F)cc12)[C@H]1C[C@H](COC)N(C(=O)C2CC2)C1` (atropisomer, axis not shown) [Compound 696], the half-inhibitory concentration (IC50) in [1] was ≤ 100 nM; in [2], ≤ 100 nM; in [3] (Homo sapiens, HCT-116) it was 100 to 1000 nM; in [4] (setting [12]), ≤ 100 nM; in [5] (setting [13]), ≤ 100 nM; in experiment [6] (Homo sapiens, MKN-1), ≤ 100 nM. Moreover, the IC50 in [7] (Homo sapiens, NCI-H358) was ≤ 100 nM; in experiment [8] (setting [14]), ≤ 100 nM; in experiment [9] (Homo sapiens), ≤ 100 nM.

As for `CC(=O)N1CC[C@@H](N(C)c2nc(OC[C@@]34CCCN3C[C@H](F)C4)nc3c(F)c(-c4ccc(F)c5sc(N)c(C#N)c45)c(C(F)(F)F)cc23)[C@H]1C` (single isomer, unassigned) [Compound 193], the concentration for half-maximal inhibition (IC50) in experiment [10] (Homo sapiens, HPAC) is ≤ 100 nM; in experiment [3] (Homo sapiens, HCT-116) it was ≤ 100 nM; in experiment [4] (setting [12]), ≤ 100 nM; in experiment [5] (setting [13]), ≤ 100 nM; in [11] (Homo sapiens, HPAC, 72 h), 100 to 1000 nM; in experiment [6] (Homo sapiens, MKN-1) it was ≤ 100 nM. Also, the 50% inhibitory concentration (IC50) in [7] (Homo sapiens, NCI-H358) was ≤ 100 nM; in experiment [8] (setting [14]), ≤ 100 nM; in [9] (Homo sapiens), ≤ 100 nM.

Turning to `N#Cc1c(N)sc2c(F)ccc(-c3c(C(F)(F)F)cc4c(N5CCOCC5)nc(OC[C@@]56CCCN5C[C@H](F)C6)nc4c3F)c12` (single isomer, unassigned) [Compound 198], the half-maximal inhibitory concentration (IC50) is 100 to 1000 nM in experiment [10] (Homo sapiens, HPAC); ≤ 100 nM in experiment [3] (Homo sapiens, HCT-116); ≤ 100 nM in [4] (setting [12]); ≤ 100 nM in experiment [5] (setting [13]); 100 to 1000 nM in experiment [11] (Homo sapiens, HPAC, 72 h); ≤ 100 nM in experiment [6] (Homo sapiens, MKN-1). Further, the half-inhibitory concentration (IC50) in [7] (Homo sapiens, NCI-H358) is ≤ 100 nM; in experiment [8] (setting [14]), ≤ 100 nM; in [9] (Homo sapiens) it was ≤ 100 nM.

With `CN(c1nc(OC[C@@]23CCCN2C[C@H](F)C3)nc2c(F)c(-c3ccc(F)c4sc(N)c(C#N)c34)c(C(F)(F)F)cc12)[C@H]1C[C@@H](O)C1` [Compound 19, 2-amino-7-fluoro-4-((S)-8-fluoro-2-(((2R,7aS)-2-fluorotetrahydro-1H-pyrrolizin-7a(5H)-yl)methoxy)-4-(((1s,3R)-3-hydroxycyclobutyl)(methyl)amino)-6-(trifluoromethyl)quinazolin-7-yl)benzo[b]thiophene-3-carbonitrile], the 50% inhibitory concentration (IC50) was ≤ 100 nM in [10]; ≤ 100 nM in experiment [3]; ≤ 100 nM in [4] (SW1990 cells (text: SW1900, KRAS G12D)); ≤ 100 nM in experiment [5] (Capan-2 (KRAS G12V) cells); 100 to 1000 nM in [11] (72 hours); ≤ 100 nM in [6]. For the same compound, the IC50 in experiment [7] was ≤ 100 nM; in experiment [8] (H358 (KRAS G12C) cells), ≤ 100 nM; in experiment [9], 100 to 1000 nM.

In the case of `N#Cc1c(N)sc2c(F)ccc(-c3c(C(F)(F)F)cc4c(N5CCCOCC5)nc(OC[C@@]56CCCN5C[C@H](F)C6)nc4c3F)c12` [Compound 232], the half-maximal inhibitory concentration (IC50) in [1] is ≤ 100 nM; in experiment [10] (Homo sapiens, HPAC), ≤ 100 nM; in experiment [3] (Homo sapiens, HCT-116) it was ≤ 100 nM; in [4] (setting [12]), ≤ 100 nM; in [5] (setting [13]) it was ≤ 100 nM; in [11] (Homo sapiens, HPAC, 72 h), > 1000 nM. For the same compound, the IC50 in experiment [7] (Homo sapiens, NCI-H358) was ≤ 100 nM; in experiment [8] (setting [14]), ≤ 100 nM.

The values are drawn from patent publication US20260042764A1, “COMPOSITIONS AND METHODS FOR INHIBITION OF KRAS” (TheRas, Inc., priority 2022, published 2026).
